Measured values published in the supplement of paper PMC5579334.
± gives the standard deviation of the averaged measurements.

How the values were obtained:
S1507-2 [1] = assay: % inhibition of CellTiter-Glo viability at highest tested concentration (72 h), relative to DMSO and benzethonium chloride controls; higher = more inhibition
Outline: (§1)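 Viability of MPNST cell lines and primary human Schwann cells was read as CellTiter-Glo ATP luminescence after 72 h at 37 °C, 5% CO2, in 384-well plates seeded with 750–1000 cells per well. Each compound had been preprinted at five concentrations in 10-fold steps. Signals were scaled between vehicle and positive-control wells, duplicates averaged where present, and fitted with four-parameter logistic curves. Drug sensitivity score and relative IC50 (censored at the top concentration) come from those fits, and percent inhibition is taken at the top concentration.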

[2] = system: HSC2 (primary human Schwann cells); assay: as above
Outline: as §1

HS-PSS [3] = assay: as above
Outline: as §1

STS26T [4] = assay: as above
Outline: as §1

HS-Sch-2 [5] = assay: as above
Outline: as §1

YST-1 [6] = assay: as above
Outline: as §1

ST8814 [7] = assay: as above
Outline: as §1

S462 [8] = assay: as above
Outline: as §1

[9] = system: HSC1 (primary human Schwann cells); assay: as above
Outline: as §1

S1507-2 [10] = assay: drug sensitivity score (DSS, CellTox-Green cytotoxicity, 72 h) (DSS (dimensionless)); higher = more cytotoxic; extreme values may be limits of the assay
Outline: (§2)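 MPNST cell lines and primary human Schwann cells were grown for 72 h at 37 °C in 384-well plates containing five 10-fold compound dilutions. CellTox-Green, added before seeding at a final 1:1000 dilution, gave fluorescence from DNA released by disrupted cells, and signals were scaled to vehicle and positive-control wells. Curves were fitted with a four-parameter logistic model. Drug sensitivity score and relative IC50 come from these fits, with IC50 censored at the top concentration.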

[11] = system: HSC2 (primary human Schwann cells); assay: as above
Outline: as §2

HS-PSS [12] = assay: as above
Outline: as §2

STS26T [13] = assay: as above
Outline: as §2

ST8814 [14] = assay: as above
Outline: as §2

[15] = system: HSC1 (primary human Schwann cells); assay: as above
Outline: as §2

S1507-2 [16] = assay: drug sensitivity score (DSS, CellTiter-Glo viability, 72 h) (DSS (dimensionless)); higher = more sensitive; extreme values may be limits of the assay
Outline: as §1

[17] = system: HSC2 (primary human Schwann cells); assay: as above
Outline: as §1

HS-PSS [18] = assay: as above
Outline: as §1

STS26T [19] = assay: as above
Outline: as §1

HS-Sch-2 [20] = assay: as above
Outline: as §1

YST-1 [21] = assay: as above
Outline: as §1

ST8814 [22] = assay: as above
Outline: as §1

S462 [23] = assay: as above
Outline: as §1

[24] = system: HSC1 (primary human Schwann cells); assay: as above
Outline: as §1

Row | Structure (SMILES) | % inhibition (S1507-2 [1]) | % inhibition [2] | % inhibition (HS-PSS [3]) | % inhibition (STS26T [4]) | % inhibition (HS-Sch-2 [5]) | % inhibition (YST-1 [6]) | % inhibition (ST8814 [7]) | % inhibition (S462 [8]) | % inhibition [9] | drug sensitivity score (S1507-2 [10]) | drug sensitivity score [11] | drug sensitivity score (HS-PSS [12]) | drug sensitivity score (STS26T [13]) | drug sensitivity score (ST8814 [14]) | drug sensitivity score [15] | drug sensitivity score (S1507-2 [16]) | drug sensitivity score [17] | drug sensitivity score (HS-PSS [18]) | drug sensitivity score (STS26T [19]) | drug sensitivity score (HS-Sch-2 [20]) | drug sensitivity score (YST-1 [21]) | drug sensitivity score (ST8814 [22]) | drug sensitivity score (S462 [23]) | drug sensitivity score [24]
1 | O=NN(CCCl)C(=O)NCCCl [Carmustine] (max concentration tested 10000 nM) | -5.49 ± 3.8% | -7.14% | 10.6% | -1.28% | 2.86% | 1.73% | -3.77% | -7.97 ± 1.3% | 0.41% | 0.439 ± 0.62 | 0 | 0 | 0 | 0 | 0 | 0 | 0 | 0.02 | 0 | 0 | 0 | 0 | 0 | 0
2 | CC1(C)CCC(c2ccc(Cl)cc2)=C(CN2CCN(c3ccc(C(=O)NS(=O)(=O)c4ccc(N[C@H](CCN5CCOCC5)CSc5ccccc5)c(S(=O)(=O)C(F)(F)F)c4)cc3)CC2)C1 [Navitoclax] (max concentration tested 10000 nM) | 47.8 ± 0.54% | 53.1% | 3.02% | 11.3% | 32.7% | 34.2% | 24.4% | 20.7 ± 5.9% | 23.8% | 16 ± 1.1 | 11.8 | 0 | 3.15 | 5.52 | 5.42 | 6.14 ± 0.43 | 5.16 | 0 | 0.0007 | 3.94 | 4.22 | 0.561 | 0.978 ± 0.8 | 2.32
3 | Nc1cc(C(F)(F)F)c(-c2cc(N3CCOCC3)nc(N3CCOCC3)n2)cn1 [Buparlisib] (max concentration tested 10000 nM) | 88.421 ± 0.034% | 88.1% | 70.9% | 96.8% | 95.2% | 95.3% | 90.9% | 97.02 ± 0.16% | 85.1% | 5.23 ± 2.9 | 7.46 | 0 | 8.28 | 4.69 | 5.07 | 8.72 ± 0.83 | 7.01 | 6.19 | 9.07 | 8.73 | 12.1 | 8.12 | 8.35 ± 0.34 | 6.85
4 | Nc1ccccc1NC(=O)c1ccc(CNc2nccc(-c3cccnc3)n2)cc1 [Mocetinostat] (max concentration tested 10000 nM) | 95.338 ± 0.088% | 87.2% | 88% | 87.5% | 101% | 100% | 93.5% | 94.19 ± 0.4% | 83.9% | 5.36 ± 2.5 | 6.39 | 4.26 | 6.23 | 5.01 | 4.7 | 8.06 ± 0.65 | 10.5 | 6.61 | 8.68 | 9.89 | 15 | 8.59 | 15.4 ± 0.54 | 9.63
5 | Cc1cccc(-c2nn3c(c2-c2ccnc4ccc(C(N)=O)cc24)CCC3)n1 [Galunisertib] (max concentration tested 1000 nM) | 9.64 ± 5.1% | 10.8% | 3.21% | 12.7% | -22% | -12.1% | -1.47% | 5.62 ± 8.5% | 6.58% | 0.0896 ± 0.13 | 0 | 0 | 0 | 0 | 0 | 0 | 0 | 0 | 0.276 | 0 | 0 | 0 | 0.00835 ± 0.012 | 0
6 | COc1cc([C@@H]2c3cc4c(cc3[C@@H](O[C@@H]3O[C@@H]5CO[C@@H](C)O[C@H]5[C@H](O)[C@H]3O)[C@H]3COC(=O)[C@H]23)OCO4)cc(OC)c1O [Etoposide] (max concentration tested 10000 nM) | 59.8 ± 1% | 63.6% | 33% | 68% | 79.1% | 73.5% | 70.7% | 90.4 ± 2.4% | 57.3% | 1.82 ± 2.4 | 3.62 | 0 | 5.16 | 3.52 | 2.21 | 5.59 ± 0.81 | 11.2 | 3.08 | 7.33 | 8.86 | 14.5 | 5.79 | 11.55 ± 0.037 | 7.17
7 | C[C@H]1C[C@@H]2[C@H]([C@@H](O)C[C@@]3(C)[C@H]2CC[C@]3(O)C(=O)CO)[C@@]2(C)C=CC(=O)C=C12 [Methylprednisolone] (max concentration tested 10000 nM) | 17.3 ± 7% | 3.94% | 3.22% | 4.35% | 7.62% | 19.3% | 22.4% | 4.77 ± 4.3% | 7.99% | 0 | 0 | 0 | 0 | 0 | 0 | 3.26 ± 4.4 | 0 | 0 | 0 | 0.61 | 0.96 | 4.82 | 0 | 0
